Reference: patent US20040242650A1, “Extended dosing regimen” (priority 2003, published 2004)
Marks after values point to notes of the source that are not given here.

Experiments:
[1] = tested on: HT-29 colon subcutaneous flank xenografts; assay: HT-29 flank xenograft model; assay type: in vivo, nude mice; conditions: q.d x5; for Tumor Volume Day 38: mean ± SEM; for % ILS: median, time to 1 cc vs vehicle; for % T/C Day 38: treated vs vehicle
Protocol: (§1) Efficacy of N-[2-[(4-hydroxyphenyl)amino]-3-pyridyl]-4-methoxybenzenesulfonamide was tested in Calu-6 NSCL, MDA-MB-468 breast and HT-29 colon carcinoma xenografts grown in nude mice. The objectives were determination of the efficacy of N-[2-[(4-hydroxyphenyl)amino]-3-pyridyl]-4-methoxybenzenesulfonamide as a single agent and in combination with cisplatin in the Calu-6 NSCL flank xenograft model; determination the efficacy of N-[2-[(4-hydroxyphenyl)amino]-3-pyridyl]-4-methoxybenzenesulfonamide as a single agent and in combination with docetaxel in the MDA-MB 468 breast flank xenograft model; determination of the efficacy of N-[2-[(4-hydroxyphenyl)amino]-3-pyridyl]-4-methoxybenzenesulfonamide as a single agent and in combination with 5-FU in the HT-29 colon flank xenograft model; and comparison the efficacy of N-[2-[(4-hydroxyphenyl)amino]-3-pyridyl]-4-methoxybenzenesulfonamide administered on 2 different schedules (q.d. vs b.i.d.) in the Calu-6 and HT-29 xenogaft model.
(§2) Following inoculation of tumor cells, tumors were passaged three times in mice before using the fragments to generate single cell suspensions. Multiple animals were used as donors. Single cell suspensions were generated by homogenizing the minced tumor tissue in RPMI 1640 media. Cell suspensions were washed three times to remove debris and other foreign materials. Viable cells were counted by trypan blue exclusion technique using a hemocytometer. Mice were injected subcutaneously with 0.5 ml of the cell suspension containing 1×10^6 cells.
(§3) Tumor cells derived from serially passaged tumor fragments were inoculated s.c. in female nude mice on day 0. On day 10, mice bearing established tumors were size matched at ˜236 mm^3 and placed into the following groups:
1. N-[2-[(4-hydroxyphenyl)amino]-3-pyridyl]-4-methoxybenzenesulfonamide—100, and 75 mg/kg/day (p.o., q.d., 5 days on, 5 days off ×2)
2. N-[2-[(4-hydroxyphenyl)amino]-3-pyridyl]-4-methoxybenzenesulfonamide—50 and 0 mg/kg/day (p.o., q.d. ×21 or p.o., b.i.d. ×21)
Combination Therapy—100/30, 75/30, mg/kg/day (p.o., q.d., 5 days on, 5 days off ×2/ip, qd ×1), 50/10 mg/kg/day (p.o., q.d., ×21/ip, qd ×1).

[2] = tested on: Calu-6 lung subcutaneous flank xenografts; assay: Calu-6 flank xenograft model; assay type: in vivo, male nude mice; conditions: q.d x1; for Tumor Volume Day 38: mean ± SEM; for % ILS: median, time to 1 cc vs vehicle; for % T/C Day 38: treated vs vehicle
Protocol: as §1, §2
Tumor cells were inoculated s.c. into male nude mice on day 0. On day 10, mice bearing established tumors were size matched at ˜233 mm^3 and placed into the following groups:
(§4) N-[2-[(4-hydroxyphenyl)amino]-3-pyridyl]-4-methoxybenzenesulfonamide—100, and 75 mg/kg/day (p.o., q.d., 5 days on, 5 days off ×2)
N-[2-[(4-hydroxyphenyl)amino]-3-pyridyl]-4-methoxybenzenesulfonamide—50 and 0 mg/kg/day (p.o., q.d. ×21 or p.o., b.i.d. ×21)
Cisplaitn—20, 10, 8 and 0 mg/kg/day (ip, qd ×1)
Combination Therapy—100/10, 75/10, 100/8 mg/kg/day (p.o., q.d., 5 days on, 5 days off ×2/ip, qd ×1), 50/10 mg/kg/day (p.o., q.d., ×21/ ip, qd ×1)

[3] = tested on: MDA-MB-468 breast subcutaneous flank xenografts; assay: MDA-MB-468 breast flank xenograft model; assay type: in vivo, female nude mice; conditions: q.d x1; for Tumor Volume Day 38: mean ± SEM; for % ILS: median, time to 1 cc vs vehicle; for % T/C Day 38: treated vs vehicle
Protocol: as §1, §2
as §3, with “Efficacy of N-[2-[(4-hydroxyphenyl)amino]-3-pyridyl]-4-methoxybenzenesulfonamide in the MDA-MB-468 Breast Flank Xenograft Model. Tumor” for “Tumor”, “˜231” for “˜236”
as §4
N-[2-[(4-hydroxyphenyl)amino]-3-pyridyl]-4-methoxybenzenesulfonamide—50 and 0 mg/kg/day (p.o., q.d. ×21)
Docetaxel—40, 33.3, 16.7 and 0 mg/kg/day (i.v., qd ×1)

O=c1[nH]cc(F)c(=O)[nH]1 [5-FU, 5-fluorouracil, reference compound]
Tumor Volume Day 38 ([1]; 20 mg/kg/day i.p.): 1413 ± 80 mm^3
% ILS ([1]; 20 mg/kg/day i.p.): 25*** %
% T/C Day 38 ([1]; 20 mg/kg/day i.p.): 59*** %
Tumor Volume Day 38 ([1]; 30 mg/kg/day i.p.): 525 ± 35 mm^3
% ILS ([1]; 30 mg/kg/day i.p.): 75*** %
% T/C Day 38 ([1]; 30 mg/kg/day i.p.): 22*** %
Tumor Volume Day 38 ([1]; 40 mg/kg/day i.p.): 973 ± 45 mm^3
% ILS ([1]; 40 mg/kg/day i.p.): 50*** %
% T/C Day 38 ([1]; 40 mg/kg/day i.p.): 41*** %

N.N.[Cl][Pt][Cl] [Cisplatin, cisplatin, reference compound]
Tumor Volume Day 38 ([2]; 8 mg/kg/day i.p.): 1649 ± 67 mm^3
% ILS ([2]; 8 mg/kg/day i.p.): 29*** %
% T/C Day 38 ([2]; 8 mg/kg/day i.p.): 63*** %
Tumor Volume Day 38 ([2]; 10 mg/kg/day i.p.): 914 ± 49 mm^3
% ILS ([2]; 10 mg/kg/day i.p.): 71*** %
% T/C Day 38 ([2]; 10 mg/kg/day i.p.): 35*** %
Tumor Volume Day 38 ([2]; 20 mg/kg/day i.p.): 1472 ± 75 mm^3
% ILS ([2]; 20 mg/kg/day i.p.): 58*** %
% T/C Day 38 ([2]; 20 mg/kg/day i.p.): 56*** %

CC(=O)O[C@@]12CO[C@@H]1C[C@H](O)[C@@]1(C)C(=O)[C@H](O)C3=C(C)[C@@H](OC(=O)[C@H](O)[C@@H](NC(=O)OC(C)(C)C)c4ccccc4)C[C@@](O)([C@@H](OC(=O)c4ccccc4)[C@H]21)C3(C)C [Docetaxel, docetaxel, reference compound]
Tumor Volume Day 38 ([3]; 16.7 mg/kg/day i.v.): 1909 ± 101 mm^3
% ILS ([3]; 16.7 mg/kg/day i.v.): 26*** %
% T/C Day 38 ([3]; 16.7 mg/kg/day i.v.): 68*** %
Tumor Volume Day 38 ([3]; 33.3 mg/kg/day i.v.): 551 ± 31 mm^3
% ILS ([3]; 33.3 mg/kg/day i.v.): 67*** %
% T/C Day 38 ([3]; 33.3 mg/kg/day i.v.): 19*** %
Tumor Volume Day 38 ([3]; 40 mg/kg/day i.v.): 1008 ± 58 mm^3
% ILS ([3]; 40 mg/kg/day i.v.): 52*** %
% T/C Day 38 ([3]; 40 mg/kg/day i.v.): 36*** %
